Test results from paper doi:10.1101/2023.03.24.534094v2 (biorxiv, 2023).
Where two headings read alike, the source gives them in different places.

Experiments:
Experiment in all cases: biochemical
[1] = target: T1, BMX (Homo sapiens, UniProt P51813)
T1 sequence (P51813 1-675): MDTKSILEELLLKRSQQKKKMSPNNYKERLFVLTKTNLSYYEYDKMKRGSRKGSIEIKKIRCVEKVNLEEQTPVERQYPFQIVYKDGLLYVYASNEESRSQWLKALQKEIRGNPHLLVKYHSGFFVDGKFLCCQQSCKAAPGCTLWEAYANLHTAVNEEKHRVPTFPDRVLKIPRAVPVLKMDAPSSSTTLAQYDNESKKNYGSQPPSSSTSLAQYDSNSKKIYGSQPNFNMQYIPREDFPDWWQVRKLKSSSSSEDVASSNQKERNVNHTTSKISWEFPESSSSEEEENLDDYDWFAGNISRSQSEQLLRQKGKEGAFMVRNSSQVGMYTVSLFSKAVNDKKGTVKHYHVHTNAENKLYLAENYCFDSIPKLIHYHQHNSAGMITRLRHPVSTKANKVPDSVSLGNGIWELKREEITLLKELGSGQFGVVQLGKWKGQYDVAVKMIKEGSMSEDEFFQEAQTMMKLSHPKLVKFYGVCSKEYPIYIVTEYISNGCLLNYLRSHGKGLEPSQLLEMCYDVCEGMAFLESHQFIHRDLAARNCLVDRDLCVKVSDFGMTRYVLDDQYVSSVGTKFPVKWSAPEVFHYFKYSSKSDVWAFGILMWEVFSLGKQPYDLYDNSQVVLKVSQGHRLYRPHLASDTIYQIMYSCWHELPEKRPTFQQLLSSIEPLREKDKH

[2] = target: CLK3 (Homo sapiens, UniProt P49761)
[3] = target: GPRK5 (Homo sapiens, UniProt P34947)
[4] = target: T2, MAP2K6 (Homo sapiens, UniProt P52564)
T2 sequence (P52564 1-334): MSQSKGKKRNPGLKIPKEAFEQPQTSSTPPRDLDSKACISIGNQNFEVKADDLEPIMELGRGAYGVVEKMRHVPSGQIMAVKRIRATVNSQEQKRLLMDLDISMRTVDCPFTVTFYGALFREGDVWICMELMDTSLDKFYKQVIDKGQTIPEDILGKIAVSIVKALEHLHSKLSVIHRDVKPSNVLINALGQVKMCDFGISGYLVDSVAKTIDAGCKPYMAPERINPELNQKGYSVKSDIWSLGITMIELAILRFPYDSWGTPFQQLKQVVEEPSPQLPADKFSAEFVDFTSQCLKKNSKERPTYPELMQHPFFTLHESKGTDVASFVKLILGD

[5] = target: NEK7 (Homo sapiens, UniProt Q8TDX7)
[6] = target: RSK1b (Homo sapiens, UniProt Q15418)
[7] = target: T3, TTK (Homo sapiens, UniProt P33981)
T3 sequence (P33981 1-857): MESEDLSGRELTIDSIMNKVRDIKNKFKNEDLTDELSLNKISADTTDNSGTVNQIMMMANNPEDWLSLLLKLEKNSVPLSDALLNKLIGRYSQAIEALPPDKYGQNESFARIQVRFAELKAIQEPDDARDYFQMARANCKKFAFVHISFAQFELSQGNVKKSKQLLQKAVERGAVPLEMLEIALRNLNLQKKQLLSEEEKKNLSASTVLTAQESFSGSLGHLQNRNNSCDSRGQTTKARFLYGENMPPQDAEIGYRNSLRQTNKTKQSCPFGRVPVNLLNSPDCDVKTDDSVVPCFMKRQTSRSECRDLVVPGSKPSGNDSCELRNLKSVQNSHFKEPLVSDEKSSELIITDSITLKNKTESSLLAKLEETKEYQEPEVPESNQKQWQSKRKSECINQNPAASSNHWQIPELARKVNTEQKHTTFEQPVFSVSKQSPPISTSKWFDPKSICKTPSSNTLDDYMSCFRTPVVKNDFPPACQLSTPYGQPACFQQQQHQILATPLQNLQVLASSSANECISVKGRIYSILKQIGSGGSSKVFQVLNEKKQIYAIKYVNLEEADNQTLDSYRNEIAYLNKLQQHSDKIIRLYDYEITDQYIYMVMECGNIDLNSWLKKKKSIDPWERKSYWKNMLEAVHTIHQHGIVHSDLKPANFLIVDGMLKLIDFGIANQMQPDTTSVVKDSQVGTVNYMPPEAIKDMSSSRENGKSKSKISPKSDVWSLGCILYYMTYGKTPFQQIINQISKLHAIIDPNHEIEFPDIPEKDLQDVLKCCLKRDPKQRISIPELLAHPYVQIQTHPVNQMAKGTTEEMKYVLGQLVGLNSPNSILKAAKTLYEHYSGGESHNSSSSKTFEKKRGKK

[8] = target: T4, ULK3 (Homo sapiens, UniProt Q6PHR2)
T4 sequence (Q6PHR2 1-472): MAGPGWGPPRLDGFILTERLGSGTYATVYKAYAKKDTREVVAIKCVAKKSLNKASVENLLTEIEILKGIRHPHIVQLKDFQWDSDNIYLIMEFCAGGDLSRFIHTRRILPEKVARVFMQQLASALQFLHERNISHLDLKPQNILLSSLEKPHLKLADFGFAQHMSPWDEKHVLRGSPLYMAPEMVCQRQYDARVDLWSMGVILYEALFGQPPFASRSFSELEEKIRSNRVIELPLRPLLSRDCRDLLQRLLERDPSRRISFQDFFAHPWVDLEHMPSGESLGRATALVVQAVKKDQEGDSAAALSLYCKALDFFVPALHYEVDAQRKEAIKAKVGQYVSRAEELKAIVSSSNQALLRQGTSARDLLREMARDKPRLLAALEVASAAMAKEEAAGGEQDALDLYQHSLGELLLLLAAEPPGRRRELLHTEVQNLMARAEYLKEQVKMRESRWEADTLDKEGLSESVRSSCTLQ

[9] = target: HIPK2 (Homo sapiens, UniProt Q9H2X6)
Chain of HIPK2 (Q9H2X6 whole entry): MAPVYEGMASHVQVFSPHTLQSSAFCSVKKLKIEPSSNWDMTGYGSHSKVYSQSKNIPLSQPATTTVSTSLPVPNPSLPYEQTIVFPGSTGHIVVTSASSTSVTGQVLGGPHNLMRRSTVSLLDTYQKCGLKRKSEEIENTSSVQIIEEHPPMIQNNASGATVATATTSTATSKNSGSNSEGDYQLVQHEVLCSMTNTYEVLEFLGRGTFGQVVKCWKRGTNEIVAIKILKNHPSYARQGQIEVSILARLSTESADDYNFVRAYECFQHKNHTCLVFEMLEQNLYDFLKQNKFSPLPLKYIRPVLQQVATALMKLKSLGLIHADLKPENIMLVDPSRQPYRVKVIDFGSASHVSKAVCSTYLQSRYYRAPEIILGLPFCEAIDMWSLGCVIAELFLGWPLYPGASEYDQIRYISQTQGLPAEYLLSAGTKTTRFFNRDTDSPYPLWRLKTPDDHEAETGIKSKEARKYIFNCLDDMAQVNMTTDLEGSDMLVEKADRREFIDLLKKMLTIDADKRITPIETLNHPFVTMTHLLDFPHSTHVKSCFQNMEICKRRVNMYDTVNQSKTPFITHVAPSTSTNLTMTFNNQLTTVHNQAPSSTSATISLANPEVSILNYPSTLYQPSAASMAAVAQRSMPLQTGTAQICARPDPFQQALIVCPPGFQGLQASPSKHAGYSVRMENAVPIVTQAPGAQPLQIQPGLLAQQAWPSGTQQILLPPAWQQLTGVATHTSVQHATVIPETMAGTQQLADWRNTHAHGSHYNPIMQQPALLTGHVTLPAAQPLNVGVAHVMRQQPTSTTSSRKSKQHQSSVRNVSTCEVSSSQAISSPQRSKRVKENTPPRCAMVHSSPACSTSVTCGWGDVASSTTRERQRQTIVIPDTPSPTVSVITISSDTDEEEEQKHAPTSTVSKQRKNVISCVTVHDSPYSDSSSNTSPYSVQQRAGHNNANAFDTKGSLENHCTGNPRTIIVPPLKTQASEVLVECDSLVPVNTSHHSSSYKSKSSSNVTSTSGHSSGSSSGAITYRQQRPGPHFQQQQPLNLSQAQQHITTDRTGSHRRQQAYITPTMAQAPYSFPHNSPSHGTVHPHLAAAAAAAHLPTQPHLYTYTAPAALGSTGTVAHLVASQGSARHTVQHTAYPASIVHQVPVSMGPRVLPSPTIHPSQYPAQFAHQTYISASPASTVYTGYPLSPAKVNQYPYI

Chain of GPRK5 (P34947 whole entry): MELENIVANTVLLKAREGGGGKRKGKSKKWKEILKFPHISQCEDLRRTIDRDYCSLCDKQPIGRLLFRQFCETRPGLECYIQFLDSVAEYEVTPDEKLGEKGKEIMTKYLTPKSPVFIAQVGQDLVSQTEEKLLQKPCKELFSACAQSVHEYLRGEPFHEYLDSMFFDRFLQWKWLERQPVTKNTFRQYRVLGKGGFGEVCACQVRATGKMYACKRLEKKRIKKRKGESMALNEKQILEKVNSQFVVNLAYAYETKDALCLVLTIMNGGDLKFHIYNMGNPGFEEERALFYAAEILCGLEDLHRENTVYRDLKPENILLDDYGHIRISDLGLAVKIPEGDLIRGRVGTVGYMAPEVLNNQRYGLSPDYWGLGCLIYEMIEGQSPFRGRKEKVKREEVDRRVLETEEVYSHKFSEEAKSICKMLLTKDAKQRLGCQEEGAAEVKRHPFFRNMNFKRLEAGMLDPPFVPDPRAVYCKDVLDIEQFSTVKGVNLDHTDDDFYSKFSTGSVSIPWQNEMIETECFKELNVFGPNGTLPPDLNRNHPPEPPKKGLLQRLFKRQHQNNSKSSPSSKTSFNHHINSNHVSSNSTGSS
Chain of RSK1b (Q15418 whole entry): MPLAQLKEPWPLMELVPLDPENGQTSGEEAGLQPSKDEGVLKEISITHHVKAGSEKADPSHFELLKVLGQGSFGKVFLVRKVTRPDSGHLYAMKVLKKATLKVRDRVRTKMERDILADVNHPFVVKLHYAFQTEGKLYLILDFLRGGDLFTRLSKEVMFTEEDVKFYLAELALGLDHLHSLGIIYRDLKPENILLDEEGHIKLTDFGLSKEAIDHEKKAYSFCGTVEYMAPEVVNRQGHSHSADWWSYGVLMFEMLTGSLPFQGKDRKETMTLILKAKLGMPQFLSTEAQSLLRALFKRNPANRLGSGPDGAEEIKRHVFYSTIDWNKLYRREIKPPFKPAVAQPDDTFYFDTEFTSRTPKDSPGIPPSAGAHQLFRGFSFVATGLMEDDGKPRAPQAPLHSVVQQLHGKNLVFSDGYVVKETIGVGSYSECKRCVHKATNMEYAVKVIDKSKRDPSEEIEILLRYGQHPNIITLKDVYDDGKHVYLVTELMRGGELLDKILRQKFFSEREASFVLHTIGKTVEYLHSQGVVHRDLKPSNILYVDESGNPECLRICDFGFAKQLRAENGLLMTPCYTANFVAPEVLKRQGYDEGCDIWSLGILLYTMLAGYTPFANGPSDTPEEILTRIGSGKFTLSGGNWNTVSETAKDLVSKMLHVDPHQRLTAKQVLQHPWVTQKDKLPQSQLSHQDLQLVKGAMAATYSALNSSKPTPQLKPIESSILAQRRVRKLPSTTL
Chain of NEK7 (Q8TDX7 whole entry): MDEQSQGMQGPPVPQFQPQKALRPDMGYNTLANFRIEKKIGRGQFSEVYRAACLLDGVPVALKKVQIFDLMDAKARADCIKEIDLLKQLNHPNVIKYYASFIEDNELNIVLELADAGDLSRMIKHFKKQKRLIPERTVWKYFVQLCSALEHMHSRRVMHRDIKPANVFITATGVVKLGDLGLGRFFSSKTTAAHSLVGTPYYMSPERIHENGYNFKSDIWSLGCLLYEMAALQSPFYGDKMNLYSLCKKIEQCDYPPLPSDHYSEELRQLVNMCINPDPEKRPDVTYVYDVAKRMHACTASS
Chain of CLK3 (P49761 whole entry): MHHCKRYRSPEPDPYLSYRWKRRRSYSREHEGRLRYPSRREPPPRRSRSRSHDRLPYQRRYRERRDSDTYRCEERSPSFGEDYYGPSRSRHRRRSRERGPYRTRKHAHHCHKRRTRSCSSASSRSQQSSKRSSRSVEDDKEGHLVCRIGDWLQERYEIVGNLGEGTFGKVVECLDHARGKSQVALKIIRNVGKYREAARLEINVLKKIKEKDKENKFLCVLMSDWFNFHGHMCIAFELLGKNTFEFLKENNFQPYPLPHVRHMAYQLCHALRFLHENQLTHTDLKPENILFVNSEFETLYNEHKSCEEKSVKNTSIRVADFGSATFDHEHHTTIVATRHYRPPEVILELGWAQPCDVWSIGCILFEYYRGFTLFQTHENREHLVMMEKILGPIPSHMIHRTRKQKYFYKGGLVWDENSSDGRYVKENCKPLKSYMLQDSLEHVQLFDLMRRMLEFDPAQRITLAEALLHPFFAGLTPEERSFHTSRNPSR

With `CNc1ncc2cc(-c3ccc(-c4cccc(C)n4)cc3Cl)c(=O)n(CC3OCC(N)CO3)c2n1` (stereo not shown) [compound 2, G-5555] the “dTm G-5555 (2)” value ([1]; 10 µM, binder) was 1.3 °C, the “dTm G-5555 (2)” value ([2]; 10 µM, binder) was 0.1 °C and the “dTm G-5555 (2)” value ([3]; 10 µM, binder) was -0.2 °C. For the same compound, the “dTm G-5555 (2)” value ([4]; 10 µM, binder) was 4.4 °C, the “dTm G-5555 (2)” value ([5]; 10 µM, binder) was 0.1 °C and the “dTm G-5555 (2)” value ([6]; 10 µM, binder) was 0.0 °C. The “dTm G-5555 (2)” value ([7]; 10 µM, binder) was 1.5 °C and the “dTm G-5555 (2)” value ([8]; 10 µM, binder) was 8.0 °C.

`CNc1ncc2cc(-c3ccccc3Cl)c(=O)n(CCCCN)c2n1` [compound 4, 8-(4-Aminobutyl)-6-(2-chlorophenyl)-2-(methylamino)pyrido[2,3-d]pyrimidin-7(8H)-one] was tested, and the ΔTm at 10 µM ([1]; read-out: dTm MR21 (4)) was 3.3 °C, the ΔTm at 10 µM ([2]; read-out: dTm MR21 (4)) was 0 °C and the ΔTm at 10 µM ([3]; read-out: dTm MR21 (4)) was -1.2 °C. It also gave a ΔTm at 10 µM ([9]; read-out: dTm MR21 (4)) of 0.1 °C, a ΔTm at 10 µM ([4]; read-out: dTm MR21 (4)) of 3.1 °C and a ΔTm at 10 µM ([5]; read-out: dTm MR21 (4)) of 0.1 °C. It also gave a ΔTm at 10 µM ([6]; read-out: dTm MR21 (4)) of 5.8 °C, a ΔTm at 10 µM ([7]; read-out: dTm MR21 (4)) of 0.9 °C and a ΔTm at 10 µM ([8]; read-out: dTm MR21 (4)) of 2.4 °C.

Compound `CNc1ncc2cc(-c3cc(F)ccc3F)c(=O)n(CCCCN)c2n1` [compound 5, 8-(4-Aminobutyl)-6-(2,5-difluorophenyl)-2-(methylamino)pyrido[2,3-d]pyrimidin-7(8H)-one] has a ΔTm at 10 µM ([1]; read-out: dTm MR22 (5)) of 1.9 °C, a ΔTm at 10 µM ([2]; read-out: dTm MR22 (5)) of -0.4 °C and a ΔTm at 10 µM ([3]; read-out: dTm MR22 (5)) of -0.6 °C. For the same compound, the ΔTm at 10 µM ([9]; read-out: dTm MR22 (5)) was 0.1 °C, the ΔTm at 10 µM ([4]; read-out: dTm MR22 (5)) was 1 °C and the ΔTm at 10 µM ([5]; read-out: dTm MR22 (5)) was -1.3 °C. The ΔTm at 10 µM ([6]; read-out: dTm MR22 (5)) was 5.4 °C, the ΔTm at 10 µM ([7]; read-out: dTm MR22 (5)) was -2.6 °C and the ΔTm at 10 µM ([8]; read-out: dTm MR22 (5)) was 1.9 °C.

Compound `CNc1ncc2cc(-c3cc(Br)ccc3Cl)c(=O)n(CCCCN)c2n1` [compound 6, 8-(4-Aminobutyl)-6-(5-bromo-2-chlorophenyl)-2-(methylamino)pyrido[2,3-d]pyrimidin-7(8H)-one] has a ΔTm at 10 µM ([1]; read-out: dTm 6) of 3.8 °C, a ΔTm at 10 µM ([2]; read-out: dTm 6) of -0.3 °C and a ΔTm at 10 µM ([3]; read-out: dTm 6) of 0 °C. For the same compound, the ΔTm at 10 µM ([9]; read-out: dTm 6) was 0.2 °C, the ΔTm at 10 µM ([4]; read-out: dTm 6) was 1.4 °C and the ΔTm at 10 µM ([5]; read-out: dTm 6) was -1 °C. It also gave a ΔTm at 10 µM ([6]; read-out: dTm 6) of 6.3 °C and a ΔTm at 10 µM ([7]; read-out: dTm 6) of 0.2 °C.

In the case of `CNc1ncc2cc(-c3cc(Br)ccc3Cl)c(=O)n(C[C@H]3OC[C@H](N)CO3)c2n1` [compound 7, 8-(((2r,5r)-5-Amino-1,3-dioxan-2-yl)methyl)-6-(5-bromo-2-chlorophenyl)-2-(methylamino)pyrido[2,3-d]pyrimidin-7(8H)-one], the ΔTm at 10 µM ([1]; read-out: dTm 7) is reported as 3.2 °C, the ΔTm at 10 µM ([2]; read-out: dTm 7) is reported as 0.5 °C and the ΔTm at 10 µM ([3]; read-out: dTm 7) is reported as 0.2 °C. The ΔTm at 10 µM ([9]; read-out: dTm 7) was 0.5 °C, the ΔTm at 10 µM ([4]; read-out: dTm 7) was 0.9 °C and the ΔTm at 10 µM ([5]; read-out: dTm 7) was -0.2 °C. For the same compound, the ΔTm at 10 µM ([6]; read-out: dTm 7) was 5.1 °C, the ΔTm at 10 µM ([7]; read-out: dTm 7) was -0.2 °C and the ΔTm at 10 µM ([8]; read-out: dTm 7) was 0.6 °C.
